Reference: ChEMBL document CHEMBL4680271, “COVID-19: Drug Targets and Potential Treatments” (J Med Chem, 2020)
pIC50: −log10 of the molar value.

Legend:
[1] = Inhibition of SARS-CoV 3C-like protease expressed in African green monkey Vero cells using SAVLQSGFRK as substrate by dual luciferase reporter assay; type: cell-based, Severe acute respiratory syndrome-related coronavirus
[2] = Inhibition of SARS-CoV2 3C-like protease expressed in Escherichia coli BL21-Gold (DE3) cells using Dabcyl-KTSAVLQSGFRKM-E(Edans)-NH2 as substrate by FRET-based cleavage assay; parameters: species or system Severe acute respiratory syndrome coronavirus 2
[3] = Inhibition of MERS-CoV 3C-like protease expressed in Escherichia coli BL21 using Dabcyl-KTSAVLQSGFRKME-Edans fluorogenic peptide as substrate by fluorometric assay; parameters: species or system Middle East respiratory syndrome-related coronavirus
[4] = Inhibition of SARS-CoV 3C-like protease expressed in Escherichia coli BL21 using Dabcyl-KTSAVLQSGFRKME-Edans fluorogenic peptide as substrate by fluorometric assay; parameters: species or system Severe acute respiratory syndrome-related coronavirus
[5] = Cytotoxicity against African green monkey Vero E6 cells by CCK8 assay; type: cell-based, Vero C1008; conditions: chlorocebus sabaeus
[6] = Inhibition of C-terminal 6His-tagged SARS-CoV papain-like protease expressed in Escherichia coli BL21 (DE3) CodonPlus-RIL using Arg-Leu-Arg-Gly-Gly-AMC as substrate by fluorescence method; parameters: species or system Severe acute respiratory syndrome-related coronavirus
[7] = Inhibition of C-terminal 6His-tagged SARS-CoV 3C-like protease expressed in Escherichia coli BL21 (DE3) CodonPlus-RIL using 12-mer fluorogenic peptide Dabcyl-KNSTLQSGLRKE-Edans as substrate incubated for 60 mins by fluorescence method; parameters: species or system Severe acute respiratory syndrome-related coronavirus
[8] = Inhibition of SARS-CoV2 3C-like protease expressed in Escherichia coli BL21 (DE3) cells using Mca-AVLQSGFR-K(Dnp)K as substrate by fluorescence method; parameters: species or system Severe acute respiratory syndrome coronavirus 2

COc1ccc(C(=O)/C=C/c2ccc(O)cc2)c(O)c1CC(O)C(C)=O (stereo not given)
pIC50 [1]: 5.15

CC(C)(C)CC(=O)Nc1cccc([C@@H](CC2CC2)C(=O)N[C@@H](CC2CCNC2=O)C(=O)C(=O)NCc2ccccc2)c1O (stereo not given in full)
pIC50 [2]: 6.17

O=C[C@H](CC1CCNC1=O)NC(=O)[C@@H](Cc1ccccc1)NC(=O)/C=C/c1ccc(Cl)cc1F (stereo not given in full)
pIC50 [3]: 5.93 | pIC50 [4]: 6.70

NC(=O)c1nc(F)c[nH]c1=O
CC50 [5]: > 400 µM

O=C(/C=C/CCc1ccc(O)c(O)c1)CCc1ccc(O)c(O)c1 [DEHYDROHIRSUTANONOL]
pIC50 [6]: 5.39 | pIC50 [7]: 4.44

NC(=O)c1ncn([C@@H]2O[C@H](CO)[C@@H](O)[C@H]2O)n1 [RIBAVIRIN]
CC50 [5]: > 400 µM

Nc1nc2c(ncn2CCC(CO)CO)c(=O)[nH]1 [PENCICLOVIR]
CC50 [5]: > 400 µM

Cn1sc(=O)n(Cc2ccccc2)c1=O
pIC50 [8]: 5.60
